Reference: PubChem BioAssay AID330 (DTP/NCI, 2004)
“And” between values parts separate entries of the source, which are not always exact repeats. Identical values can stand only once. Inconclusive results and toxic doses are left out.

Test system: P388 leukemia ip, CD2F1 mice, survival T/C
Experiment: NCI In Vivo Anticancer Drug Screen. Data for tumor model P388 Leukemia (intraperitoneal) in CD2F1 (CDF1) mice
Details: endpoint: median survival time, higher = longer survival
Procedure, shortened: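 Mice carrying the transplanted tumor received test compound or vehicle. Survival was recorded in each group, and the value is the treated-group measurement divided by that of the vehicle-treated control group.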

[1] = dose: 60.0 mg/kg/injection, schedule: Q01DX005 (ip), vehicle: saline with Tween-80
[2] = dose: 50.0 mg/kg/injection, schedule: Q01DX009 (ip), vehicle: Klucel (hydroxypropylcellulose) (HPC)
[3] = dose: 100.0 mg/kg/injection, schedule: Q01DX009 (ip), vehicle: Klucel (hydroxypropylcellulose) (HPC)
[4] = dose: 200.0 mg/kg/injection, schedule: Q01DX009 (ip), vehicle: Klucel (hydroxypropylcellulose) (HPC)
[5] = dose: 25.0 mg/kg/injection, schedule: Q04DX003 (ip), vehicle: saline
[6] = dose: 50.0 mg/kg/injection, schedule: Q04DX003 (ip), vehicle: saline
[7] = dose: 100.0 mg/kg/injection, schedule: Q04DX003 (ip), vehicle: saline

COc1c2c(cc3c1-c1ccc(OC)c(=O)cc1C(NC(C)=O)CC3)OCO2 (centres undefined)
T/C (dose: 0.47 mg/kg/injection, schedule: Q01DX009 (ip), vehicle: distilled water + Tween-80): 157 % of control | T/C (dose: 0.94 mg/kg/injection, schedule: Q01DX009 (ip), vehicle: distilled water + Tween-80): 166 % of control | T/C (dose: 3.75 mg/kg/injection, schedule: Q01DX009 (ip), vehicle: distilled water + Tween-80): 155 % of control | T/C (dose: 7.5 mg/kg/injection, schedule: Q01DX009 (ip), vehicle: distilled water + Tween-80): 161 % of control

Cc1nn(-c2ccc(Cl)cc2)c2c1c(=O)[nH]c1ccccc12
T/C (dose: 3.75 mg/kg/injection, schedule: Q01DX005 (ip), vehicle: saline with Tween-80): 98 % of control | T/C (dose: 7.5 mg/kg/injection, schedule: Q01DX005 (ip), vehicle: saline with Tween-80): 92 % of control | T/C (dose: 15.0 mg/kg/injection, schedule: Q01DX005 (ip), vehicle: saline with Tween-80): 87 % of control and 88 % of control | T/C [1]: 87 % of control

CC(C)N1CCC(OC(=O)Nc2ccccc2)C1 (centres undefined)
T/C [2]: 100 % of control | T/C [3]: 99 % of control | T/C [4]: 98 % of control

CCN(CC)CCNC(=O)c1nn(-c2ccccc2)c2c1CCc1ccccc1-2
T/C [5]: 100 % of control | T/C [6]: 101 % of control | T/C [7]: 102 % of control and 107 % of control

C(=NCCCN=CC1CCCC[N-]1)C1CCCC[N-]1.[Cu+2].[O-][Cl+3]([O-])([O-])O (centres undefined)
T/C (dose: 3.12 mg/kg/injection, schedule: Q01DX009 (ip), vehicle: saline with Tween-80): 103 % of control | T/C (dose: 6.25 mg/kg/injection, schedule: Q01DX009 (ip), vehicle: saline with Tween-80): 101 % of control | T/C (dose: 12.5 mg/kg/injection, schedule: Q01DX009 (ip), vehicle: saline with Tween-80): 103 % of control and 112 % of control | T/C (dose: 25.0 mg/kg/injection, schedule: Q01DX009 (ip), vehicle: saline with Tween-80): 103 % of control

CCOC(=O)N1C(C(=O)c2ccc(C)cc2)N(C2CCCCC2)C(c2ccccc2)N1C(=O)OCC (centres undefined)
T/C (dose: 400.0 mg/kg/injection, schedule: Q01DX009 (ip), vehicle: saline with Tween-80): 86 % of control

N#Cc1c(-c2ccccc2)c(-c2ccccc2)nn(CCC(=O)O)c1=O
T/C (dose: 25.0 mg/kg/injection, schedule: Q04DX002 (ip), vehicle: distilled water + Tween-80): 101 % of control | T/C (dose: 50.0 mg/kg/injection, schedule: Q04DX002 (ip), vehicle: distilled water + Tween-80): 102 % of control | T/C (dose: 100.0 mg/kg/injection, schedule: Q04DX002 (ip), vehicle: distilled water + Tween-80): 108 % of control

NC(=O)N=Nc1ccc(Cl)c(Cl)c1
T/C (dose: 50.0 mg/kg/injection, schedule: Q01DX005 (ip), vehicle: saline with Tween-80): 100 % of control | T/C (dose: 100.0 mg/kg/injection, schedule: Q01DX005 (ip), vehicle: saline with Tween-80): 102 % of control | T/C (dose: 200.0 mg/kg/injection, schedule: Q01DX005 (ip), vehicle: saline with Tween-80): 102 % of control

CC(C)NC(=O)c1ccc(C/[N+]([O-])=C/c2ccccc2)cc1
T/C (dose: 50.0 mg/kg/injection, schedule: Q01DX009 (ip), vehicle: distilled water + Tween-80): 95 % of control | T/C (dose: 50.0 mg/kg/injection, schedule: Q01DX009 (ip), vehicle: other): 121 % of control | T/C (dose: 100.0 mg/kg/injection, schedule: Q01DX009 (ip), vehicle: distilled water + Tween-80): 92 % of control and 95 % of control | T/C (dose: 100.0 mg/kg/injection, schedule: Q01DX009 (ip), vehicle: other): 103 % of control | T/C (dose: 200.0 mg/kg/injection, schedule: Q01DX009 (ip), vehicle: distilled water + Tween-80): 89 % of control and 92 % of control | T/C (dose: 200.0 mg/kg/injection, schedule: Q01DX009 (ip), vehicle: other): 116 % of control | T/C (dose: 400.0 mg/kg/injection, schedule: Q01DX009 (ip), vehicle: distilled water + Tween-80): 92 % of control | T/C (dose: 800.0 mg/kg/injection, schedule: Q01DX009 (ip), vehicle: other): 153 % of control

COc1ccc2ncc(COC(=O)NCCCl)c(COC(=O)NCCCl)c2c1
T/C (dose: 25.0 mg/kg/injection, schedule: Q01DX005 (ip), vehicle: Klucel (hydroxypropylcellulose) (HPC)): 92 % of control | T/C (dose: 50.0 mg/kg/injection, schedule: Q01DX005 (ip), vehicle: Klucel (hydroxypropylcellulose) (HPC)): 86 % of control | T/C (dose: 100.0 mg/kg/injection, schedule: Q01DX005 (ip), vehicle: Klucel (hydroxypropylcellulose) (HPC)): 88 % of control | T/C (dose: 200.0 mg/kg/injection, schedule: Q01DX005 (ip), vehicle: Klucel (hydroxypropylcellulose) (HPC)): 86 % of control

CCN(CC)c1ccc(/C=C(\C#N)C(N)=S)cc1
T/C (dose: 50.0 mg/kg/injection, schedule: Q01DX009 (ip), vehicle: saline): 89 % of control | T/C (dose: 100.0 mg/kg/injection, schedule: Q01DX009 (ip), vehicle: saline): 101 % of control | T/C (dose: 200.0 mg/kg/injection, schedule: Q01DX009 (ip), vehicle: saline): 105 % of control

CN(C)CCCOC1=Nc2ccccc2O/C1=C/c1ccccc1
T/C (dose: 12.5 mg/kg/injection, schedule: Q04DX003 (ip), vehicle: saline): 98 % of control | T/C [5]: 94 % of control | T/C [6]: 97 % of control | T/C [7]: 97 % of control

O=[N+]([O-])c1cccc2c1nnn2OC1CCCC1
T/C (dose: 100.0 mg/kg/injection, schedule: Q01DX001 (ip), vehicle: saline with Tween-80): 102 % of control | T/C (dose: 200.0 mg/kg/injection, schedule: Q01DX001 (ip), vehicle: saline with Tween-80): 98 % of control

CCCOc1ccc(-c2nc(-c3ccc(N)cc3)cs2)cc1
T/C [2]: 111 % of control | T/C [3]: 109 % of control | T/C [4]: 109 % of control

N#CSc1ccc2nc(N)sc2c1
T/C (dose: 6.25 mg/kg/injection, schedule: Q01DX009 (ip), vehicle: Klucel (hydroxypropylcellulose) (HPC)): 111 % of control | T/C (dose: 12.5 mg/kg/injection, schedule: Q01DX009 (ip), vehicle: Klucel (hydroxypropylcellulose) (HPC)): 111 % of control | T/C (dose: 25.0 mg/kg/injection, schedule: Q01DX009 (ip), vehicle: Klucel (hydroxypropylcellulose) (HPC)): 104 % of control

O=P(OCCN(CCOP(=O)(Oc1ccccc1)Oc1ccccc1)c1ccc2ccccc2c1)(Oc1ccccc1)Oc1ccccc1
T/C (dose: 50.0 mg/kg/injection, schedule: Q01DX009 (ip), vehicle: saline with Tween-80): 94 % of control | T/C (dose: 100.0 mg/kg/injection, schedule: Q01DX009 (ip), vehicle: saline with Tween-80): 86 % of control | T/C (dose: 200.0 mg/kg/injection, schedule: Q01DX009 (ip), vehicle: saline with Tween-80): 96 % of control

C=C1C2CCC3C(CCC4C5(C)CCCC43CN3CCOC35)(C2)C1O (centres undefined)
T/C (dose: 1.0 mg/kg/injection, schedule: Q01DX009 (ip), vehicle: Klucel (hydroxypropylcellulose) (HPC)): 95 % of control | T/C (dose: 2.0 mg/kg/injection, schedule: Q01DX009 (ip), vehicle: Klucel (hydroxypropylcellulose) (HPC)): 97 % of control | T/C (dose: 4.0 mg/kg/injection, schedule: Q01DX009 (ip), vehicle: Klucel (hydroxypropylcellulose) (HPC)): 98 % of control | T/C (dose: 8.0 mg/kg/injection, schedule: Q01DX009 (ip), vehicle: Klucel (hydroxypropylcellulose) (HPC)): 97 % of control

Cc1c2ccn(CCCCCCCCn3ccc4c(C)c5nc6ccccc6c5c(C)c4c3)cc2c(C)c2c1nc1ccccc12
T/C (dose: 3.13 mg/kg/injection, schedule: Q04DX003 (ip), vehicle: distilled water + Tween-80): 118 % of control and 121 % of control | T/C (dose: 25.0 mg/kg/injection, schedule: Q04DX003 (ip), vehicle: distilled water + Tween-80): 123 % of control

NC(=O)N/N=C/c1cccc(O)c1O
T/C [2]: 101 % of control | T/C [3]: 107 % of control | T/C [4]: 116 % of control

CC(C)(C)n1nc(C2CC2)c(Br)c1NC(=O)c1ccccc1F
T/C (dose: 30.0 mg/kg/injection, schedule: Q01DX005 (ip), vehicle: Klucel (hydroxypropylcellulose) (HPC)): 100 % of control | T/C (dose: 60.0 mg/kg/injection, schedule: Q01DX005 (ip), vehicle: Klucel (hydroxypropylcellulose) (HPC)): 98 % of control | T/C (dose: 120.0 mg/kg/injection, schedule: Q01DX005 (ip), vehicle: Klucel (hydroxypropylcellulose) (HPC)): 104 % of control | T/C (dose: 240.0 mg/kg/injection, schedule: Q01DX005 (ip), vehicle: Klucel (hydroxypropylcellulose) (HPC)): 100 % of control

CCOC(=O)C(NC(=O)C(CO)n1c(-c2ccccc2)c(-c2ccccc2)oc1=O)C(=O)OCC (centres undefined)
T/C [1]: 105 % of control | T/C (dose: 120.0 mg/kg/injection, schedule: Q01DX005 (ip), vehicle: saline with Tween-80): 104 % of control | T/C (dose: 240.0 mg/kg/injection, schedule: Q01DX005 (ip), vehicle: saline with Tween-80): 90 % of control

Cc1ccc([N+]([O-])=NC#N)cc1
T/C (dose: 7.5 mg/kg/injection, schedule: Q04DX003 (ip), vehicle: Klucel (hydroxypropylcellulose) (HPC)): 97 % of control | T/C (dose: 15.0 mg/kg/injection, schedule: Q04DX003 (ip), vehicle: Klucel (hydroxypropylcellulose) (HPC)): 100 % of control | T/C (dose: 30.0 mg/kg/injection, schedule: Q04DX003 (ip), vehicle: Klucel (hydroxypropylcellulose) (HPC)): 112 % of control
